Results: PubChem BioAssay (NCI)
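Test compounds were applied to cells in 96-well plates for 48 hours at 5 doses. GI50 is the concentration that inhibits growth by half. The concentration for full growth arrest is given as TGI.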

What was measured:
Test in all cases: NCI anticancer screen, dose series, 48 h
[1] = test system: HCT-116 colon
[2] = test system: NCI-H23 lung
[3] = test system: UO-31 renal
[4] = test system: OVCAR-5 ovarian
[5] = test system: BT-549 breast
[6] = test system: RPMI-8226 leukemia
[7] = test system: HCT-15 colon
[8] = test system: MDA-MB-435
[9] = test system: MCF7 breast
[10] = test system: HS 578T breast
[11] = test system: MDA-MB-231 breast
[12] = test system: A498 renal
[13] = test system: NCI/ADR-RES ovarian
[14] = test system: A549 NSCLC
[15] = test system: KM12 colon
[16] = test system: M14 melanoma
[17] = test system: MOLT-4 leukemia
[18] = test system: RXF 393 renal
[19] = test system: UACC-62 melanoma
[20] = test system: HOP-92 NSCLC
[21] = test system: T-47D breast
[22] = test system: OVCAR-4 ovarian
[23] = test system: OVCAR-3 ovarian
[24] = test system: SK-MEL-5 melanoma
[25] = test system: NCI-H522 lung
[26] = test system: SN12C renal
[27] = test system: NCI-H226 lung
[28] = test system: 786-0 renal
[29] = test system: U251 CNS
[30] = test system: HOP-62 NSCLC
[31] = test system: LOX IMVI melanoma
[32] = test system: SR leukemia
[33] = test system: CCRF-CEM leukemia
[34] = test system: SF-268 CNS
[35] = test system: DU-145 prostate
[36] = test system: PC-3 prostate
[37] = test system: TK-10 renal
[38] = test system: OVCAR-8 ovarian
[39] = test system: SNB-75 CNS
[40] = test system: NCI-H460 lung
[41] = test system: SNB-19 CNS
[42] = test system: CAKI-1 renal
[43] = test system: SK-MEL-2 melanoma
[44] = test system: SK-MEL-28 melanoma
[45] = test system: HL-60(TB) leukemia
[46] = test system: ACHN renal
[47] = test system: HCC-2998 colon
[48] = test system: SK-OV-3 ovarian
[49] = test system: SW-620 colon
[50] = test system: UACC-257 melanoma
[51] = test system: SF-539 CNS
[52] = test system: SF-295 CNS
[53] = test system: IGROV1 ovarian
[54] = test system: COLO 205 colon

COc1ccc(/C=C/c2cc(N3CCOCC3)c3cc(F)c(F)cc3n2)cc1OC
GI50 [1]: 414 nM
TGI [1]: 10000 nM
GI50 [2]: 1120 nM
TGI [2]: 6110 nM
GI50 [3]: 347 nM
TGI [3]: 10300 nM
GI50 [4]: 2010 nM
TGI [4]: 11900 nM
GI50 [5]: 777 nM
TGI [5]: 5460 nM
GI50 [6]: 1500 nM
TGI [6]: 9000 nM
GI50 [7]: 392 nM
TGI [7]: 12000 nM
GI50 [8]: 1540 nM
TGI [8]: 12800 nM
GI50 [9]: 389 nM
TGI [9]: 9480 nM
GI50 [10]: 2370 nM
TGI [10]: 28800 nM
GI50 [11]: 483 nM
TGI [11]: 4660 nM
GI50 [12]: 1230 nM
TGI [12]: 4630 nM
GI50 [13]: 432 nM
TGI [13]: 3030 nM
GI50 [14]: 1670 nM
TGI [14]: 8990 nM
GI50 [15]: 1240 nM
TGI [15]: 13700 nM
GI50 [16]: 762 nM
TGI [16]: 3920 nM
GI50 [17]: 624 nM
TGI [17]: 11000 nM
GI50 [18]: 1360 nM
TGI [18]: 10800 nM
GI50 [19]: 436 nM
TGI [19]: 2240 nM
GI50 [20]: 1360 nM
TGI [20]: 6530 nM
GI50 [21]: 449 nM
TGI [21]: 5690 nM
GI50 [22]: 253 nM
TGI [22]: 2040 nM
GI50 [23]: 351 nM
TGI [23]: 2260 nM
GI50 [24]: 520 nM
TGI [24]: 2370 nM
GI50 [25]: 454 nM
TGI [25]: 2720 nM
GI50 [26]: 1680 nM
TGI [26]: 14100 nM
GI50 [27]: 1100 nM
TGI [27]: 4820 nM
GI50 [28]: 600 nM
TGI [28]: 3800 nM
GI50 [29]: 728 nM
TGI [29]: 10500 nM
GI50 [30]: 667 nM
TGI [30]: 7250 nM
GI50 [31]: 516 nM
TGI [31]: 2270 nM
GI50 [32]: 431 nM
TGI [32]: 6780 nM
GI50 [33]: 310 nM
TGI [33]: 10200 nM
GI50 [34]: 775 nM
TGI [34]: 16500 nM
GI50 [35]: 1580 nM
TGI [35]: 11800 nM
GI50 [36]: 846 nM
TGI [36]: 14400 nM
GI50 [37]: 1140 nM
TGI [37]: 10200 nM
GI50 [38]: 550 nM
TGI [38]: 3230 nM
GI50 [39]: 1060 nM
TGI [39]: 6630 nM
GI50 [40]: 526 nM
TGI [40]: 3720 nM
GI50 [41]: 1110 nM
TGI [41]: 12400 nM
GI50 [42]: 394 nM
TGI [42]: 3240 nM
GI50 [43]: 2390 nM
TGI [43]: 11500 nM
GI50 [44]: 1440 nM
TGI [44]: 11600 nM
GI50 [45]: 435 nM
TGI [45]: 5140 nM
GI50 [46]: 615 nM
TGI [46]: 12400 nM
GI50 [47]: 876 nM
TGI [47]: 4210 nM
GI50 [48]: 1320 nM
TGI [48]: 9170 nM
GI50 [49]: 667 nM
TGI [49]: 11600 nM
GI50 [50]: 2390 nM
TGI [50]: 9890 nM
GI50 [51]: 913 nM
TGI [51]: 4290 nM
GI50 [52]: 653 nM
TGI [52]: 14900 nM
GI50 [53]: 968 nM
TGI [53]: 9670 nM
GI50 [54]: 558 nM
TGI [54]: 3810 nM
